US7642400B2, “Protein kinase C iota” (Mayo Foundation for Medical Education and Research, priority 2004, dated 2010)

Tests used:
[1] = test system: Rac1 activity in A549 cells; test: Rac1 activity assay (affinity isolation of GTP-bound Rac1) in A549 cells; type: cell-based, human
Description: Rac 1 Activity Assays: Rac1 activity in A549 and H1299 cell transfectants was assessed by affinity isolation of GTP-bound Rac1 using binding domains of PAK as described previously (Sander et al., J. Cell Biol., 143(5):1385-98 (1998)). Briefly, cells were lysed in lysis buffer (50 mM Tris-HCl pH 7.5, 150 mM NaCl, 20 mM MgCl2, 5 mM EGTA, 10% glycerol, 1% Triton X-100, 1% NP-40, 25 mM NaF, 1 mM phenylmethylsulfonyl fluoride, 1 mM sodium orthovanadate, 10 μg/ml leupeptin, 10 μg/ml aprotinin) at 4° C. for 5 min. Cellular debris was removed by centrifugation at 20,000×g for 5 min, and supernatants were transferred to new tubes containing 20 μl of GST-p21-binding domain of PAK1 (PAK1-PBD) coupled to agarose beads (Upstate). An aliquot of each supernatant was reserved to determine total Rac1 and actin expression by immunoblot analysis. Following a 30-minute incubation at 4° C., the agarose beads were collected by centrifugation and washed three times in wash buffer (50 mM Tris-HCl pH 7.5, 150 mM NaCl, 20 mM MgCl2, 5 mM EGTA, 10% glycerol, 1% Triton X-100, 1% NP-40, 25 mM NaF, 1 mM phenylmethylsulfonyl fluoride, 1 mM sodium orthovanadate, 10 μg/ml leupeptin, 10 μg/ml aprotinin). Bound polypeptides were solubilized by the addition of 30 μl of SDS sample buffer, resolved by SDS-PAGE, and subjected to immunoblot analysis for Rac1. An equivalent aliquot of the total cell lysate was subjected to immunoblot analysis to determine total Rac1 expression.
Rac 1 Activity Assays: A549 cells were incubated with the indicated concentration of ATG for one hour prior to analysis. Rac1 activity in A549 cells was assessed by affinity isolation of GTP-bound Rac1 using binding domains of PAK as described elsewhere (Sander et al., J. Cell Biol., 143:1385-98 (1998)). Briefly, cells were lysed in lysis buffer (50 mM Tris-HCl pH 7.5, 150 mM NaCl, 20 mM MgCl2, 5 mM EGTA, 10% glycerol, 1% Triton X-100, 1% NP-40, 25 mM NaF, 1 mM phenylmethylsulfonyl fluoride, 1 mM sodium orthovanadate, 10 μg/ml leupeptin, and 10 μg/ml aprotinin) at 4° C. for 5 min. […]

[2] = target: T1, interaction of PKCι polypeptides with PAR6 polypeptides (Homo sapiens, UniProt P41743); test: Primary screen: FRET assay of PKCι113-YFP-N1 (PYN) and PAR6125-CFP-C1; settings: FIG. 18; less binding as concentration increased
T1 construct: amino acids 1-113 or a full-length PKCι polypeptide; 6xHis; made in house
T1 sequence (P41743 10-122): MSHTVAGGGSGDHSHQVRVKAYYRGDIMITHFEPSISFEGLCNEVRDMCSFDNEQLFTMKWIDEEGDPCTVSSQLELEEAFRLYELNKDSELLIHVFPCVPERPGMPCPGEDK
Description: A primary screen was performed as follows to identify test compound having the potential to inhibit the interaction of PKCι polypeptides with PAR6 polypeptides. Bacterially expressed PKCι113-YFP-N1 (PYN) was isolated from the soluble fraction of bacterial lysates by affinity purification according to the manufacturer's protocol (B-PER 6×His Purification Kit; Pierce). The purified polypeptide was dialyzed against Tris buffer (50 mM Tris, pH 8.0; 135 mM NaCl; 10% glycerol; 0.002% EDTA) containing 2 M urea. PAR6125-CFP-C1 recombinant polypeptide was isolated from the inclusion body pellets of bacterial lysates using the B-PER reagent (Pierce) according to the manufacturer's protocol. […] Yields were measured by fluorescence in a SpectraMax Gemini microplate reader (Molecular Devices).
To perform the assay, PYN was diluted to 4000 relative fluorescent units/50 μl in Tris buffer plus 1 M urea, and PAR6125-CFP-C1 was diluted to 400 relative fluorescent units/50 μl Tris buffer plus 1 M urea. […] Fluorescence was measured in a SpectraMax Gemini plate reader. Cyan fluorescence was measured at excitation 395 nm, emission 475 nm, and cutoff of 455 nm. Yellow fluorescence was measured at excitation 395 nm, emission 529, and cutoff of 515=n. […]

## OC[C@H]1O[C@H]([S-])[C@H](O)[C@@H](O)[C@@H]1O.[Au+] [Aurothioglucose]
[1]; A549 cells incubated with ATG for one hour, FIG. 19
  Rac1 activity: decreased Rac1 activity
[1]; A549 cells, less Rac1 activity as ATG concentrations increased
  dose dependence of Rac1 activity: dose-dependent effect on Rac1 activity
[2]
  dose-response in the FRET assay: relative binding of PKCι and PAR6 polypeptides: dose-dependent effect
